The record followed here is patent US9580398B2, “Compounds, compositions, and methods for modulating ferroptosis and treating excitotoxic disorders” (The Trustees of Columbia University in the City of New York, priority 2012, dated 2017).

Experiment [1] relates to erastin (10 μM)-treated HT-1080 cells. Kind of experiment: Inhibition of death in erastin (10 μM)-treated HT-1080 cells, viability by Alamar Blue. In kind it is cell-based, human. Conditions: inhibition of death in erastin (10 μM)-treated HT-1080 cells; Alamar Blue; from dose response curves. The protocol:
(§1) Cell viability was typically assessed in 384-well format by Alamar Blue (Invitrogen) fluorescence (ex/em 530/590) measured on a Victor3 platereader (Perkin Elmer, Waltham, Mass.). In some experiments, Trypan Blue dye exclusion counting was performed using an automated cell counter (ViCell, Beckman-Coulter Inc., Brea, Calif.). Cell viability in test conditions is reported as a percentage relative to the negative control treatment.
Flow cytometry data was analyzed using FloJo (9.3.2, Tree Star, Inc., Ashland, Oreg.). Chemical structures were drawn using ChemDraw Ultra (Cambridgesoft, Cambridge, Mass.). Computational determination of log P (Slog P function) was performed using MOE 2010.10 (Chemical Computing Group, Montreal, […].). Viability data was analyzed using Excel (Microsoft Corp., […].). Summary data and heatmaps were generated using R. Dose-response curves were computed by 4-parameter logistic regression in Prism 5.0c (GraphPad Software). Images were manipulated using Photoshop CS4 and Illustrator CS4 (Adobe, San Jose, Calif.).
The ability of various compounds disclosed herein to inhibit death in erastin (10 μM)-treated HT-1080 cells were tested. Cell viability was assessed by Alamar Blue. EC50 values (nM) were computed from dose response curves.

Experiment [2] deals with HT-1080 cells. Kind of experiment: Modulatory profile of lethal small molecules (effect of Fer-1 on lethality of various compounds). It counts as cell-based, human. Conditions: resynthesized Fer-1 0.5 μM. The protocol:
The modulatory effect (Me) for drug-drug interactions was computed as follows. First, plate-based background correction was performed using Alamar Blue values from empty (cell-free) wells included on each plate. Next, within each experiment, 100% viability is determined as the average Alamar Blue score for cells treated with modulator=DMSO and lethal=DMSO, and all Alamar Blue values were scaled from 0 to 1 with the DMSO×DMSO condition=1. The individual effects of each modulator and lethal (e.g. in the presence of DMSO) at all tested doses were then ascertained. […] Next, BExp was compared to the actual observed viability. For each informative drug-drug interaction (i.e. modulator=“DFO”, modulator concentration=100 μM, lethal=Erastin) the modulatory effect (Me) was equivalent to the maximum observed deviation, positive or negative, from BExp. By default, Me in DMSO-treated cells is equal to 0. This formula was empirically determined to provide a useful measure of modulation that is robust to differences in the shapes of individual dose-response curves for different inhibitors and lethal molecules. Me values for each inhibitor-lethal drug combination were hierarchically clustered and plotted as a heatmap using the heatmaps.2 function of the gplots library in R. […]

Experiment [3] has as its system ERK phosphorylation in HT-1080 cells. Put plainly: Western blotting of ERK phosphorylation. In kind it is cell-based, human. The procedure: Cells were trypsinized, pelleted, and washed once in PBS. Cells were lysed for 20 minutes in buffer containing: 50 mM HEPES pH 7.4, 40 mM NaCl, 2 mM EDTA, 0.5% Triton X-100, 1.5 mM sodium orthovanadate, 50 mM NaF, 10 mM sodium pyrophosphate, 10 mM sodium β-glycerophosphate, and protease inhibitor tablet (Roche, Nutley, N.J.). Unlysed cells and debris were pelleted for 10 minutes at 10,000 rpm in a benchtop microcentrifuge at 4° C., and the supernatant was removed and mixed with 5×SDS loading buffer. Samples were separated by SDS-polyacrylamide gel electrophoresis. Western transfer was performed using the iBlot system (Invitrogen). Membrane was blocked for 1 hour in Licor Odyssey Blocking Buffer (LI-COR) and incubated in primary antibody overnight at 4° C. Following three 5-minute washes in Tris-buffered saline (pH 7.4) with 1% Tween-20 (TBS-T), membrane was incubated with secondary antibodies for 45 minutes in the dark. The membrane was washed again in TBST for three 5-minute washes with protection from light and scanned using the Odyssey Imaging System (LI-COR). Antibodies used were as follows: rabbit anti-phospho p42/44 MAPK (Cell Signaling Technology, #9101) and rabbit anti-p42/44 MAPK (Cell Signaling Technology, #9102). The secondary antibody was IR dye 800CW goat anti-rabbit IgG (LI-COR).

Experiment [4] has as its system HT-1080 cells. Kind of experiment: HT-1080 cell proliferation (Vi-Cell). It counts as cell-based, human. The following applies: over 48 hours. The protocol: as §1
Experiment [5] relates to ROS production in HT-1080 cells. Put plainly: Analysis of reactive oxygen species production by flow cytometry (H2DCFDA, C11-BODIPY, MitoSOX). The following applies: erastin 10 μM; HT-1080 cells; H2DCFDA, C11-BODIPY. It counts as cell-based, human.
Description: The day before the experiment, 200,000 cells/well were seeded in 6-well dishes (Corning Inc., Corning, N.Y.). […] Data was collected from the FL1 (H2DCFDA, C11-BODIPY) or FL2 channel (MitoSOX). A minimum of 10,000 cells were analyzed per condition.
A short description of experiment [6]: 2,2-diphenyl-1-picrylhydrazyl (DPPH) assay, cell-free antioxidant potential. The following applies: test compound 0.05 mM, absorbance at 517 nm. The protocol:
The stable radical DPPH (Blois, 1958) was dissolved in methanol to a final concentration of 0.05 mM. 1 mL of DPPH solution was added to 2 μL of each test compound dissolved in DMSO. The final concentration of each test compound was 0.05 mM. Samples were inverted several times and allowed to incubate at room temperature for 10 minutes. Samples were then aliquoted to white 96-well solid-bottom dishes (Corning) and absorbance at 517 nm was recorded using a TECAN M200 plate reader. All values were normalized to background (methanol only). The experiment was repeated twice. Results within each trial normalized to DMSO (=1.0), then averaged across trials.

pEC50: −log10 of the molar value.

In experiment [1], `CCOC(=O)c1ccc(NC2CCCCC2)c(N)c1` [Fer-1, ferrostatin-1] gave a pEC50 of 7.02. Also, in experiment [2], the “specificity of death inhibition against various lethal compounds” value was “specifically inhibited RSL-induced death, but not cell death induced by other oxidative lethal compounds and apoptosis-inducing agents”. Moreover, the ERK phosphorylation result in experiment [3] is reported as “did not inhibit ERK phosphorylation”. Further, in experiment [4], the HT-1080 cell proliferation entry is listed as “did not inhibit ERK phosphorylation or arrest the proliferation of HT-1080 cells”. Further, the “effect on erastin-induced ROS accumulation” value in experiment [5] was “prevent erastin-induced accumulation of cytosolic and lipid ROS”. Also, the “intrinsic antioxidant capability (DPPH)” value in experiment [6] was “readily oxidized the stable radical 2,2-diphenyl-1-picrylhydrazyl (DPPH)”.
